Measurements taken from patent publication US10252260B2, “System and method for deforming particles” (CytoVale Inc., priority 2016, dated 2019).

Experiments:
[1] = test system: white blood cells; test: Deformation of white blood cells in viscous co-flow, bullet metric as a function of treatment time; type: cell-based; details: white blood cells treated with 5 nM; compared to untreated controls; FIG. 10
Method: FIG. 10 illustrates the bullet metric as a function of treatment time for white blood cells treated with 5 nM phorbol 12-myristate as compared with a untreated control in embodiments of a system and method for deforming particles;
(§1) The system 100 and/or method 200 function to enable the deformation of individual particles in a high-throughput and consistent manner, with the ability to simultaneously generate and analyze multiple data types characterizing the single particles. In one embodiment, the system 100 and/or method 200 further function to enable the generation of data that directly correlates mechanical properties of the particles with one or more fluorescence characterizations of the particles (e.g., fluorescent antibody stains, live/dead cell stains, nuclear stains, stains for apoptosis, fluorescent proteins, etc.) at the single-particle level. This can allow the generation of a direct quantitative comparison between biomolecular properties and mechanical properties. […]
(§2) Regarding Block S240, preferably, deformation metrics can be measured to characterize the deformation of the particles as the particle travels along the deformation region. […]

[2] = test system: red blood cells; test: Deformation of red blood cells in viscous co-flow (primaquine biomodel), diameter versus bullet metric; type: cell-based; details: red blood cells of different stiffness induced by different concentrations of primaquine; FIGS. 11A-11C
Source text: FIGS. 11A-11C illustrate bullet metric as a function of size for red blood cells treated with different concentrations of primaquine in variations of a system and method for deforming particles; and
as §1, §2

SMILES	change in a cell morphological metric (bullet metric) over treatment time [1]	cell morphological metric (e.g. bullet metric) [2]
CCCCCCCCCCCCCC(=O)O[C@@H]1[C@@H](C)[C@@]2(O)[C@@H](C=C(CO)C[C@]3(O)C(=O)C(C)=C[C@@H]23)[C@@H]2C(C)(C)[C@]12OC(C)=O	increased change in a cell morphological metric	
COc1cc(NC(C)CCCN)c2ncccc2c1 (centres unmarked) [primaquine]		decrease in a cell morphological metric
